“And” between values parts separate entries of the source, which are not always exact repeats. Equal values may be shown once.
Experiments:
CMK cells = assay: Apoptosis-regulating effect: DNA fragmentation in CMK cells (agarose gel electrophoresis); format: cell-based, human; conditions: 30 μg/ml; 2 or 4 days
Method: CMK cells were used to prepare a suspension of 1×10^5 cells/ml in RPMI-1640 medium supplemented with fetal calf serum and Compound 1 was added at a concentration of 30 μg/ml. The mixture was incubated in a culture flask at 37° C. for 2 or 4 days. As a control, the medium to which the solvent alone was added was similarly incubated.
Cells were harvested by centrifugation at 4° C. for 10 minutes at 200×G. The pellet was dissolved in a hypotonic buffer (10 mM Tris-HCl, 1 mM EDTA and 0.2% Triton 100, pH 7.5) and the solution was centrifuged at 4° C. for 10 minutes at 13000×G. The supernatant was collected and allowed to stand in 50% isopropyl alcohol -0.5M NaCl at -20° C. overnight. The resultant precipitate was centrifuged at 4° C. for 10 minutes at 13000×G, the supernatant was discarded, and the sediment was dried. The dry sediment was resuspended in 10 mMTris-HCl-1 mM EDTA (pH 7.4). To the supernatant was added RNase at a final concentration of 0.1 mg/ml and the mixture was incubated at 37° C. for 1 hour.
To a sample corresponding to the cell count of 1×10^6 was added 1/5 volume of a loading buffer containing 15 mM EDTA, 2% SDS, 50% glycerol and 0.05% bromphenol blue, and the mixture was incubated at 65° C. for 10 minutes.
The culture sample thus obtained was subjected to electrophoresis in 1.5% agarose gel at 100 V for 100 minutes. The DNA was stained with ethidium bromide. […]

HL-60 cells = assay: Induction of differentiation of HL-60 cells (CD11b expression, flow cytometry); format: cell-based, human; set-up: reference not given here; conditions: 30 μg/ml; 3 days; CD11b fluorescence
Method: HL-60 cells were cultivated in RPMI-1640 medium supplemented with 10% of FCS at 37° C. under 5% CO2, and the cell concentration was adjusted to 5×10^4 cells/ml.
Then, the above-mentioned medium containing 30 μg/ml of each test compound was added to each well of 6-well microplates (Costar), followed by 3 days of incubation at 37° C. under 5% CO2. In a control group, the above medium alone was added and incubation was performed in the same manner. Thereafter, each cultured cell suspension was sampled into an Eppendorf tube and, after staining with 0.2% trypan blue-containing phosphate buffer, viable cells were counted using a hematocytometer.
The above cells were adjusted to 1×10^7 cells/ml. To 100 μl of the cell suspension was added 5 μl of a solution of fluorescein isothiocyanate (FITC)-labeled anti-human CD11b antibody (Mol; Coulter) and the reaction was allowed to proceed on ice in the dark for 30 minutes. Then, cells were washed twice with PBS (phosphate-buffered saline; Nissui Pharmaceutical) containing 0.1% of BSA (bovine serum albumin; Sigma), finally suspended in 500 μl of the BSA-containing PBS and measured for fluorescence intensity by flow cytometry using Profile II (Coulter).

[1] = test system: Human transformed normal T cells (MT-4), HIV-infected; assay: Antiretrovirus activity test: viable HIV-infected MT-4 cells; format: cell-based; conditions: for Number of HIV-infected cells: 3 days, control 105
Method: Human transformed normal T cells (MT-4) [Nagumo, T. and Hoshino, H., Jpn. J. Cancer Res. 79, 9-11 (1988)] were used to prepare a suspension of 2×10^5 cells/ml in RPMI-1640 medium (Gibco) supplemented 10% FCS (Gibco).
Compound 1 was dissolved in hydrochloric acid, diluted in the same medium as above, neutralized with 2N NaOH and adjusted to concentrations of 1 μg/ml, 10 μg/ml, 30 μg/ml and 100 μg/ml.
The cells prepared in (a) above and the test compound (final concentration: 1 μg/ml, 10 μg/ml, 30 μg/ml or 100 μg/ml) prepared in (b) above were placed in the wells of a 12-well culture plate (Costar). Then, 50 μl/well of HIV suspension was added to infect the cells in each well, followed by 3-day incubation at 37° C. in a 5% carbon dioxide incubator. As a control, the medium without addition of the test compound was used. After completion of incubation, the cell suspension in each well was taken and viable cells were counted.

B16 melanoma cells = assay: Effect on experimental model of pulmonary metastasis of B16 melanoma cells; format: in vivo, mouse (C57BL/6 mice); conditions: for No. of colonies in lungs, Mean: control 86.7; for No. of colonies in lungs, individual mice: 4 days
Method: B16 mouse melanoma cells [Koren, S. and Fleischmann, W. R., J. Interferon Research, i, 473-482 (198)], 2×10^6 cells, were suspended in Eagle's MEM medium (Nissui Pharmaceutical Co., Ltd.) supplemented with 10% FBS (Gibco) to which 3 or 10 μg/ml of Compound 1 was previously added or not added. The suspension was cultured in a 75-cm^2 flask (Corning) in an incubator (National Appliance Model 15300) at 37° C. under 5% carbon dioxide for 4 days. Then, the cells were washed with Dulbecco's PBS solution (Nissui pharmaceutical Co., Ltd.), and 0.05% trypsin (Flow Laboratories) was added to detach the cells from the flask. The cells were washed centrifugally (Hitachi 05PR-22, 1200 rpm, 5 minutes) twice and after addition of 0.2% trypan blue (Wako Pure Chemical Industries Ltd.), viable cells were counted using a hemocytometer (No. J7796, Kayagaki Works) and the cells were diluted with Hank's solution (Flow Laboratories)to a concentration of 5×10^6 cells/ml.
The cells obtained as above were transplanted, in a population of 3×10^5 cells each, into groups of 7 C57BL/6 mice (7 weeks old, female, purchased from Charles River Japan, Inc.) through the tail vein. Twelve days later, the mice were killed by cervical dislocation and the number of colonies metastatized to the lungs was determined.

COc1ccc(C(=O)N2CCN(c3ccc4c(c3)CCC(=O)N4)CC2)cc1OC [Compound 1, 6-[4-(3,4-Dimethoxybenzoyl)-1-piperazinyl]-3,4-dihydrocarbostyril]
Apoptosis (DNA fragmentation) (CMK cells): promotes apoptosis of CMK cells | Induction of differentiation promoting effect (HL-60 cells): 322 | Inhibition of HIV-infected cell growth (in words) [1]: inhibits cell growth | Number of HIV-infected cells ([1]; 1 μg/ml): 100 ×10^4 | Number of HIV-infected cells ([1]; 10 μg/ml): 88 ×10^4 | Number of HIV-infected cells ([1]; 30 μg/ml): 78 ×10^4 | Number of HIV-infected cells ([1]; 100 μg/ml): 85 ×10^4 | No. of colonies in lungs, Mean (B16 melanoma cells; 3 μg/ml, *P < 0.05): 10.0 colonies | No. of colonies in lungs, Mean (B16 melanoma cells; 10 μg/ml): 34.7 colonies | Inhibition of pulmonary metastasis (in words) (B16 melanoma cells; 3 or 10 μg/ml): evident inhibition of pulmonary metastasis | No. of colonies in lungs, individual mice (B16 melanoma cells; cells pre-incubated with 3 μg/ml): 14 colonies and 7 colonies and 11 colonies and 6 colonies and 8 colonies and 24 colonies and 0 colonies | No. of colonies in lungs, individual mice (B16 melanoma cells; cells pre-incubated with 10 μg/ml): 17 colonies and 43 colonies (2×) and 65 colonies and 7 colonies and 46 colonies and 22 colonies

Source: US5672603A, “Apoptosis regulating composition” (Otsuka Pharmaceutical Co., Ltd., priority 1991, dated 1997)
